The text below walks through data of US5051132A, “Lyophilized preparation of 6-(3-dimethylaminopropionyl)forskolin” (priority 1989, dated 1991).

This series in a line: Stability and solubility of 6-(3-dimethylaminopropionyl)forskolin in aqueous solution. The class given is physicochemical.

Regarding `C=CC1(C)CC(=O)C2(O)C(C)(O1)C(OC(C)=O)C(OC(=O)CCN(C)C)C1C(C)(C)CCC(O)C12C` (centres unmarked) [6-(3-dimethylaminopropionyl)forskolin], the “stability in the state of aqueous solution” value (aqueous solution) is “unstable in the state of aqueous solution”. Further, under “pH about 3 to about 6”, the “stability and solubility in the pH range of about 3 to about 6” value is “keeps stable and exhibits a good solubility”.
